Assay results from patent US5866570A, “Treatment of vascular leakage and related syndrome such as septic shock by administration of metalloproteinase inhibitors” (Wisconsin Alumni Research Foundation, priority 1994, dated 1999).

What was measured:
[1] = test system: V-79A fibroblasts; settings: tissue culture; cited from earlier work
[2] = test system: metastases; settings: in vivo; cited from earlier work
[3] = test system: B16-F10 melanoma cells; settings: pretreatment of B16-F10 cells at 2, 20 and 100 μM; cited from earlier work
[4] = test system: HT-1080 cells (human fibrosarcoma); assay: in vitro invasion assay through matrigel (Transwell); format: cell-based
Procedure: (§1) Razoxane, various bis(hydroxylated)(2,6-dioxopiperazine)s, and various hydrophobic analogs were tested in an in vitro assay for inhibition of tumor cell penetration of a reconstituted basement membrane, matrigel, isolated from the Englegbreth-Holm-Swarm (EHS) tumor (disclosed in Kleinman et al., Biochem. (1982), 24, 6188-6193) first described by Albini et al, Cancer Res. (1987) 47, 3234-3245. An 8 μm pore filter coated with matrigel separates a lower compartment containing a chemoattractant and an upper compartment containing the cells and test compound. In particular, the following compounds were tested: razoxane, (1α, 2α, 4α, 5α)-4,4'-(4,5-dihydroxy-1,2-cyclohexanediyl)bis(2,6-piperazinedione); (1α, 2α, 4β, 5β)-4,4'-(4,5-dihydroxy-1,2-cyclohexanediyl)bis(2,6-piperazinedione);(1β, 2α,4α,5α)-4,4'-(4,5-dihydroxy-1,2-cyclohexanediyl)bis(2,6-piperazinedione); (1β, 2α, 4α,5β)-4,4'-(4,5-dihydroxy-1,2-cyclohexanediyl)bis(2,6piperazinedione); (1α, 2β, 4α,5β)-4,4'-(4,5-dihydroxy-1,2cyclohexanediyl)bis(2,6-piperazinedione); N,N'-cyclohexane-1,2-diylbis[N(2-ethoxy-2-oxoethyl)]glycine; N,N'-4-cyclohexene-1,2-diylbis[N-(2-ethoxy-2-oxoethyl)-glycine ester; (3aα, 5β, 6β, 7aα)-4,4'-(hexahydro-2,2-dimethyl1,3-benzodioxole-5,6-diyl)bis(2,6-piperazinedione); (3aα, 5α, 6α, 7aα)-4,4'-(hexahydro-2,2-dimethyl-1,3-benzodioxole-5,6-diyl)bis(2,6- piperazinedione); (3aα, 5α, 6β, 7aα)-4,4'-(hexahydro-2,2-dimethyl-1,3-benzodioxole-5,6-diyl)bis-2,6- piperazinedione; (3aα, 5β, 6α, 7aβ)-4,4'-(hexahydro-2,2dimethyl-1,3-benzodioxole-5,6-diyl)bis(2,6-piperazinedione); and (3aα, 5α, 6β, 7aβ)-4,4'-(hexahydro-2,2-dimethyl-1,3-benzodioxole-5,6-diyl) bis(2,6piperazinedione). Metastatic cells are able to degrade the basement membrane protein barrier and migrate through the pores of the filter whereas non-metastatic cells remain on the upper surface. The cells that pass to the under side of the filter are then counted under a microscope. […] Variations of this assay have been used to correlate this in vitro invasion with metastatic potential in vivo (Albini et al. (Id.); Hendrix et al. Cancer Letters (1987); 38, 127-247; Repesh L. A., Invasion Metastasis (1989) 9, 192-208 to select for more highly invasive cells (Teranova et al., Proc. Nat. Acad. Sci., (1986), 83, 465, 464; Tullberg et al., Invasion Metastasis, (1989), 9, 13-26; Sefer et al., Biotechniques, (1990), 9, 324-331), and to test compounds for inhibition (Nakajima et al., Cancer Res. (1989), 49, 1698-1756).
(§2) This method has been improved to increase the number of assays which may be performed and analyzed per day. In particular, such improvement comprises the use of disposable Transwells (Costar) units described by Repesh et al., Invasion Metastasis, (1989), 9, 192-208, which consist of an 8 μm pore filter attached to an insert that fits in a 24 well culture plate. Matrigel concentration is titrated from zero to complete inhibition of motility of each invasive cell line used in the assay and for each batch of matrigel. The matrigel concentration which yields 50% or greater inhibition of motility in a 6 hr assay (usually from 15 to 50 μg of protein per filter) is chosen for determination of invasion. Motility of cells through the 8 μm filters is not by passive diffusion since the pore size is smaller than the cells, and is determined in the same chamber in the absence of matrigel. Motility is stimulated two-fold by the presence of fibroblast conditioned medium (3T3 cells) as a chemoattractant (data not shown). The cell lines used are HT-1080, a human fibrosarcoma, and MDA-MB-231, a human breast carcinoma (both available from the American Type Tissue Culture). These cell lines express both the 72 kD and the 92 kD collagenase type IV as determined by zymography (data not shown).
(§3) For inhibition studies, 5×10^5 cells are plated in 200 μl of DMEM+0.1% BSA+the inhibitor (or appropriate solvent control) into the upper chamber of the Transwell. […]

[5] = test system: MDA-MB-231 cells (human breast carcinoma); assay: as above; format: cell-based; settings: preliminary screen
Procedure: as §1, §2, §3

[6] = molecular target: T1, E. coli recombinant human 72 kD collagenase type IV (MMP-2), pAPMA activated (Homo sapiens, UniProt P08253); assay: gelatinase assay (3H-gelatin degradation), Example 9; format: biochemical; settings: 100 ng activated enzyme, 4 hrs preincubation with inhibitor at 37° C., 3H-gelatin substrate; read-out: IC50, inhibition of collagenase type IV gelatinase activity
T1 construct: made in house; host or cells: E. coli
T1 sequence (P08253 110-660): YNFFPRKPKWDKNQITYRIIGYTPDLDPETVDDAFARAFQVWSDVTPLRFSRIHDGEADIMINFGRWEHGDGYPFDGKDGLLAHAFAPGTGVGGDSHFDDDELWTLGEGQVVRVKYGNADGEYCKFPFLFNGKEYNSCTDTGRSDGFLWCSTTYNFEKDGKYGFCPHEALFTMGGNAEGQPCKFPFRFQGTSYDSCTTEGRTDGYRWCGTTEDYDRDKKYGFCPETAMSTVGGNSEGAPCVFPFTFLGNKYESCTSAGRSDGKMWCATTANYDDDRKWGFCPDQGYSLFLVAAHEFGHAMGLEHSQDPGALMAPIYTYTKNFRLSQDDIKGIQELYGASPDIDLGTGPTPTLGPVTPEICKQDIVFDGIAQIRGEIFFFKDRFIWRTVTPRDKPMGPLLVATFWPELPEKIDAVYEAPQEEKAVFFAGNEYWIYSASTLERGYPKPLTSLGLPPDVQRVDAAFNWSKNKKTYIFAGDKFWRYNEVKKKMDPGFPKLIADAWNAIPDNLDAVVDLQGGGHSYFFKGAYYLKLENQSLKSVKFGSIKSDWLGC
Source text: Type IV collagenases are highly efficient in digesting gelatin. Inhibition of the gelatinase activity of human recombinant collagenase type IV was used as an initial assay for testing the bis(dioxopiperazine)s. The recombinant 72 kD collagenase IV used in the gelatinase assays was made in E. coli from a cDNA insert obtained from Dr. William Stetler-Stevenson (NCI). The protein runs at 72 kD on SDS-PAGE, has gelatinolytic activity in zymogram, is activated by pAPMA, is precipitated by a monoclonal anti-peptide antibody to the pro-region of the 72 kD enzyme, and is inhibited by TIMP-2. Rat tail ^3 H-collagen I (Dupont-NEN) is denatured to become gelatin by heating at 60° C. for 20 min. E. coli recombinant human 72 kD collagenase type IV is activated by incubation with 1 mM pAPMA for 1 hr. at 37° C. 100 ng of activated enzyme is added to each tube containing 50 mM Tris-HCl pH 7.5, 5 mM CaCl2 and 0.005% Brij-35 and pre-incubated with inhibitor or solvent control for 4 hrs. at 37° C. in a total of 25 μl. 10,000 cpm of ^3 H-gelatin substrate in 30 μl is added (final volume of 55 μl per sample) and the reaction mixture is incubated at 37° C. for 2 to 16 hrs. […] Enzyme activity is calculated from the radioactivity in the supernatant and activity of the compounds expressed as percent solvent control.

Question: With `O=C1CN([C@@H]2C[C@H]2N2CC(=O)NC(=O)C2)CC(=O)N1` (relative stereo) [trans-15] as the molecule, how does the cytotoxic activity [1] read?
Answer: Its cytotoxic activity is “inactive”.

Question: And the “effect on development of metastases” value [2]?
Answer: Its value is “stimulates”.

Question: With `O=C1CN2CCN3CC(=O)NC(=O)[C@H]3[C@H]2C(=O)N1` [cis-21] as the molecule, how does the “metastasis to the lungs after pretreatment of the cells” value [3] read?
Answer: Its value is “ineffective”.

Question: With `CC1(C)O[C@H]2C[C@@H](N3CC(=O)NC(=O)C3)[C@H](N3CC(=O)NC(=O)C3)C[C@H]2O1` (relative stereo) [Compound 78] as the molecule, how does the inhibition at 290 µM ([4]; Homo sapiens, HT-1080, at 290 μM, 6 hour assay, read-out: maximum inhibition of invasion) read?
Answer: The inhibition at 290 µM was 25%.

Question: What about the inhibition of invasion ([4]; preliminary screen) of the same molecule?
Answer: Its inhibition of invasion is “inhibit invasion”.

Question: And the “effect on cell motility” value ([4]; preliminary screen, no matrigel)?
Answer: The value was “without inhibiting cell motility”.

Question: What about the inhibition of invasion [5] of the same molecule?
Answer: Its inhibition of invasion is “inhibit invasion”.

Question: And the “effect on cell motility” value ([5]; no matrigel)?
Answer: The value was “without inhibiting cell motility”.

Question: And the IC50 [6]?
Answer: The IC50 was 45 µM.

Question: Which “metastasis to the lungs after pretreatment of the cells” value [3] does the source give for `O=C1CN2CCN3CC(=O)NC(=O)[C@H]3[C@@H]2C(=O)N1` (relative stereo) [trans-20] here?
Answer: Its value is “significantly reduces the metastasis”.

Question: With `O=C1CN([C@@H]2C[C@@H]2N2CC(=O)NC(=O)C2)CC(=O)N1` [cis-16, cis-4,4'-(cyclopropanediyl) bis(2,6)dioxopiperazine] as the molecule, how does the “effect on development of metastases” value [2] read?
Answer: Its value is “inhibits”.
